{
  "source": "patent US11975009B2",
  "about": "“Use of zinc porphyrin as an antimicrobial” (ZNABLE LLC, priority 2022, dated 2024)",
  "key": {"[1]": {"tested_on": "PsA PAO1 biofilm", "experiment": "PAO1 biofilm on coupons, LIVE/DEAD stain, confocal microscopy", "format": "cell-based, Pseudomonas aeruginosa", "procedure": "FIG. 2A: ZnPor (alone) stained biofilm. […] Length of size bar: […].\nFIGS. 15A-15B show the biofilms of PAO1 treated with various concentrations of ZnPor (II) and in combination with PEV2 phage. Biofilms of strain PAO1 were grown on coupons cut from polyethylene in MSG media for approximately 16-18 hours. Overnight media was replaced with fresh PBS and were treated with (FIG. 15B) ZnPor (II) only at concentrations of 5, 10 or 25 μg/mL, and incubated for 2 h, (FIG. 15A) phage PEV2 only (MOI=10:1) for 4 h, or (FIG. 15B) ZnPor (II) treatment for 2 h followed by the addition of phage PEV2 (MOI of 10:1) and incubated for an additional 4 h. Coupons were gently washed in distilled water and were treated with LIVE/DEAD™ stain. All coupons were imaged using confocal laser scanning […] microscopy (CLSM) at 60×. Green=LIVE Red=DEAD.\nPAO1 was grown overnight in MSG at 37 C with shaking. CDC Bioreactors with PE coupons were inoculated to a final OD of 0.15 in cation adjusted Mueller Hinton broth. Biofilms were grown 16-18 h at 37 degrees C. with 50 rpm stirring. Control biofilm is shown (FIG. 20A). All overnight media in bioreactors were replaced with fresh PBS. Bioreactors treated with ZnPor (II) at 4 μg/mL were left to incubate for 2 hours without stirring. Bioreactors treated with either whole PEV2 phage or the purified DNA genome of PEV2 were incubated for 24 hours without stirring. […]"}, "[2]": {"tested_on": "PsA PA14 biofilms", "experiment": "PA14 biofilm on polyethylene coupons, LIVE/DEAD stain, CLSM", "format": "cell-based, Pseudomonas aeruginosa", "conditions": "ZnPor 25 μg/mL 2 h, then PEV2 (MOI 10:1) 4 h", "procedure": "Biofilms were grown on polyethylene coupons in CDC approved bioreactors in MSG media for […]. Overnight media was replaced with PBS and biofilms were treated as follows: (FIG. 19A) Control (no additions), (FIG. 19B) ZnPor (25 μg/mL) for 2 hours, (FIG. 19C) Phage PEV2 (MOI of 10:1) for 4 hours, or (FIG. 19D) ZnPor (25 μg/mL) for 2 hours followed by the addition of Phage PEV2 (MOI of 10:1) for 4 hours. Coupons were gently washed in distilled water and were treated with LIVE/DEAD™ stain. All coupons were imaged using confocal laser scanning […] microscopy (CLSM) at 60×."}, "[3]": {"tested_on": "SA biofilm", "experiment": "SA biofilm model with bioluminescence reporter", "format": "cell-based, Staphylococcus aureus", "conditions": "escalating doses of ZnPor vs PBS", "procedure": "Representative of one experiment.\nBiofilm formation was an important defense mechanism utilized by bacteria and was associated with bacterial phenotypes that predict worse clinical outcomes in CF. A biofilm model was deployed using an SA strain with genetically embedded bioluminescence reporter to gauge efficacy of ZnPor against SA biofilm. Plastic plates were coated with bioluminescent SA and treated with escalating doses of ZnPor or PBS. Bioluminescence was measured via spectrophotometer."}, "[4]": {"tested_on": "PsA", "experiment": "Mouse model of PsA lung infection", "format": "in vivo, mice", "procedure": "Mice were infected with PsA intratracheally, and subsequently treated with 125 μM ZnPor intratracheally. Bronchoalveolar lavage (BAL) was collected at 16 h. Bacterial titers were measured in BAL. *p<0.05, Mann-Whitney U. Representative of one experiment.\nBased on in vitro experiments showing significant bactericidal activity of ZnPor against PsA and minimal toxicity of ZnPor in vitro in airway and alveolar epithelial cells as well as in monocytes/macrophages, the next experiments examined efficacy and safety of ZnPor in PsA infection in mice. Wildtype (WT) mice were anesthetized and infected with 5×10^6 CFU PsA via intratracheal route. Immediately following infection, mice were anesthetized again and treated with ZnPor (125 μM) or PBS (negative control). Mice were monitored for clinical signs of toxicity. At 16 h, mice were sacrificed and bronchoalveolar lavage (BAL) and lungs were isolated."}, "[5]": {"tested_on": "planktonic PsA PAO1 cells", "experiment": "Syber Green entry into planktonic cells (permeabilization)", "format": "cell-based, Pseudomonas aeruginosa", "conditions": "pre-treated planktonic PsA cells", "procedure": "Syber Green™ can pass through the cell wall into PsA cells pre-treated with ZnPor (II) at concentrations as low as 1 μg/mL; this is below the MIC (4 ug/m). Cells treated with ZnPor (II) allowed the entry of the Syber Green molecule even at sub-MIC concentrations of ZnPor (II)."}, "[6]": {"tested_on": "phage PEV2", "experiment": "Inactivation of phage PEV2 (PFU titer)", "set-up": "species or system Pseudomonas phage PEV2", "procedure": "Phage PEV2 was diluted to 10^9 PFU/mL in phage buffer and treated with ZnPor (25 μg/mL) for a total of 4 hours. A 300 W light was used to photoactivate ZnPor_light treatments for 20 minutes. Measurements of plaque forming units (PFU/mL) were taken at each timepoint by serially diluting phage to determine titer using a soft agar overlay protocol. Data from 3 separate experiments represents total mean±standard error, total (n=8)."}, "[7]": {"tested_on": "Mycobacterium tuberculosis", "experiment": "Killing of acid fast bacterium", "format": "cell-based", "source_text": "ZnPor (II) is the only porphyrin that kills Gram-positive and Gram-negative bacteria without photoactivation. […] Additionally, ZnPor (II) inactivates the bacteriophage PEV2, a well-studied bacteriophage of Pseudomonas aeruginosa. PEV2 is currently being used in phage therapy in Europe. […] While ZnPor (II) can inactivate phage, at lower concentrations it can act synergistically with bacteriophage PEV2 or the purified genome of PEV2 in remediation of biofilms of PsA. This is referred to as PAS Phage Antibiotic Synergy (PAS) and is of great interest and intense study; as a means to overcome several known limitations of phage-only “Phage Therapy”."}, "[8]": {"tested_on": "Drosophila melanogaster", "conditions": "flies fed ZnPor (II); Yoho et al. 2014; cited from earlier work"}, "[9]": {"tested_on": "PsA PAO1", "experiment": "Minimum inhibitory concentration (MIC) of ZnPor (II)"}, "[10]": {"tested_on": "PsA", "experiment": "Activity of extant antibiotics together with ZnPor (II)"}},
  "data": [
    {"substance": "meso-5,10,15-tris(N-methyl-4-pyridyl)-20-(pentafluorophenyl)porphyrinatozinc(II), tris-p-toluene sulfonate [ZnPor]", "values": [
      {"measurement": "biofilm clearing", "setting": "[1]; 25 μg/mL ZnPor alone, 2 h", "value": "almost complete clearing of the biofilm"},
      {"measurement": "LIVE/DEAD state of biofilm", "setting": "[1]; pre-treated with ZnPor (II) 4 μg/mL before adding PEV2 whole phage", "value": "only dead cells"},
      {"measurement": "effect on PA14 cells towards PEV2 phage", "setting": "[2]", "value": "sensitive to PEV2 phage"},
      {"measurement": "biofilm formation by bioluminescence", "setting": "[3]", "value": "significantly less biofilm formation"},
      {"measurement": "bacterial titers in BAL and lung homogenates", "setting": "[4]; WT mice, 5×10^6 CFU PsA intratracheal, ZnPor 125 μM, 16 h", "value": "significantly decreased PsA infection"},
      {"measurement": "clinical toxicity", "setting": "[4]; ZnPor-treated versus untreated mice, 125 μM", "value": "No clinical toxicity was observed"},
      {"measurement": "lowest ZnPor (II) concentration allowing Syber Green entry", "setting": "[5]", "value": 1, "unit": "µg/mL"},
      {"measurement": "effect of photoactivation on killing", "setting": "[6]; with photoactivation", "value": "quicker and greater killing"},
      {"measurement": "inactivation of viruses", "setting": "[6]; without light activation", "value": "able to inactivate viruses without light activation"},
      {"measurement": "effect on bacteriophage PEV2", "setting": "[6]; without photoactivation", "value": "inactivates"},
      {"measurement": "killing", "setting": "[7]", "value": "effective at killing"},
      {"measurement": "toxicity to Drosophila", "setting": "[8]", "value": "not toxic"},
      {"measurement": "MIC", "setting": "[9]", "value": 4, "unit": "µg/mL"},
      {"measurement": "effect on extant antibiotics ineffective against bacterial biofilms, e.g., Tobramycin", "setting": "[10]", "value": "enables activity"}
    ]}
  ]
}
